The values that follow are results of earlier work, collected in US11169101B2, “Oligosaccharide compositions and methods of use thereof” (Kaleido Biosciences, Inc., priority 2018, dated 2021).

For the series the following is noted: administered in combination with lactulose.

Regarding `CO[C@H]1/C=C/O[C@@]2(C)Oc3c(C)c(O)c4c(O)c(c5c(nc6cc(C)ccn65)c4c3C2=O)NC(=O)/C(C)=C\C=C\[C@H](C)[C@H](O)[C@@H](C)[C@@H](O)[C@@H](C)[C@H](OC(C)=O)[C@@H]1C` [rifaximin], the “reduction of episodes of OHE” value was “approximately 50%”.
